Reference: a melting point compilation (Tetko et al.; mined from patent text by program, amines drawn as free bases though some values may be those of a salt)

Row | Compound | melting point
1 | COc1ccc(COc2cccc3c2CN(C2CCC(=O)NC2=O)C3=O)cc1OC (stereo not drawn) | 205 to 207 °C
2 | COC(=O)c1c(C(=O)OC)c2sc3ccccc3n2c1-c1ccc(F)cc1 | 186 to 187 °C
3 | FC(F)(F)c1cccc(-c2c[nH]c(C3CCN(c4ncnc5[nH]ncc45)CC3)n2)c1 | 281 °C
4 | COC(=O)c1ccc2oc(Cl)nc2c1 | 104 to 106 °C
5 | COc1ccc2c(c1)c(=O)c(S(=O)(=O)N(C)C)cn2C | 199 to 201 °C
6 | O=C(c1cccc(C(F)(F)F)c1)N1CCc2cc(S(=O)(=O)N3CC(c4ccccc4)NC3=O)ccc21 (stereo not drawn) | 119 °C
7 | COc1ccc(C2CCN(c3c(C)c(C)c4c(c3C)C(N3CCc5ccccc5CC3)C(C)(C)O4)CC2)cc1OC (stereo not drawn) | 136 to 138 °C
8 | COc1c(Br)cc(Br)c2ccc(C=Cc3ccccc3)nc12 | 150 to 152 °C
9 | CC(C)C1Cc2ccccc2P1c1ccccc1P1c2ccccc2CC1C(C)C (single isomer, unassigned; (+)) | 70 to 71 °C
10 | COc1ccc(-n2nc(N3CCN(C(N)=O)CC3)c3ccccc32)cc1 | 155 to 157 °C
11 | CCc1nccn1Cc1ccc2c(c1)-c1[nH]nc(-c3ccsc3)c1C2 | 238 to 239 °C
12 | COc1ccc(-c2c(C#N)nn(-c3c(Cl)cc(C(F)(F)F)cc3Cl)c2N)cc1OC | 250 °C
13 | CCc1nc(C(=O)OC)c(OC)c(N)c1F | 110 to 113 °C
14 | Oc1nsc(SCc2ccc(Cl)cc2Cl)n1 | 134 °C
15 | Cc1cc(C)c([N+](=O)[O-])c(C)c1-c1n[nH]c2c(C#N)c(C(C)(C)C)nn12 | 265 to 266 °C
16 | Cc1ccccc1-c1cc(C#N)c[nH]1 | 151 to 152 °C
17 | CC(=O)Nc1cccc(-c2csc(NC(N)=S)n2)c1C | 228 to 230 °C

Row | Compound | melting point
18 | N#Cc1sc(N)c(C#N)c1Cl | 259 °C
19 | COc1cc(I)cc2c(O)c(C(=O)NCc3ccc(Cl)cc3)cnc12 | 241 to 243 °C
20 | CSc1nc(=O)[nH]c(C)c1Br | 244 °C
21 | CCN(CC)c1ccc(-c2cc(-c3ccc(C(=O)O)cc3)ccc2CCCNC(C)(C)C)cc1C(C)(C)C | 273 °C
22 | COc1cc(C(C)C)ccc1C1(Cl)C(=O)c2cccc([N+](=O)[O-])c2C1=O (stereo not drawn) | 81 to 84 °C
23 | Cc1nccn1-c1nc(Cl)c(-c2ccccc2)c2ccccc12 | 167 to 168 °C
24 | Cc1ccc(Cl)c(Nc2ccccc2-c2n[nH]c(=S)[nH]2)c1Cl | 300 to 305 °C
25 | COc1ccc2c(c1)c(S(=O)(=O)c1ccccc1)cn2CCNCc1ccccc1 | 98 to 99 °C
26 | C=C1CCc2[nH]c3c(c2C1=O)CCC3 | 214 to 215 °C
27 | Cn1ccnc1Sc1ccc(Nc2c(C#N)cnc3cc(/C=C/CCN4CCCC4)ccc23)cc1Cl | 185 to 191 °C
28 | Nc1cccc(-c2cc3ccccc3[nH]2)c1 | 166 °C
29 | COc1nc(N)nc2c1CCC2 | 134 to 135 °C
30 | Cc1cn(C)cc(-c2cccc(Cl)c2)c1=O | 143 to 144 °C
31 | CN(C)C=Nc1nc(OCc2ccc(F)cc2)ncc1F | 113 to 115 °C
32 | COc1cc2ccc(C(=O)O)cc2cc1OC | 245 to 247 °C
33 | Cc1cn(-c2ccc([N+](=O)[O-])c(C)c2)c(C)n1 | 136 to 138 °C

Further lines, results first:

Row | melting point | Compound
34 | 112 to 113 °C | CCCN(C(C)=O)c1ccc(C(=O)N2CCN(CCc3ccc(Cl)cc3)CC2)cc1
35 | 292 to 293 °C | CC(C)CNC(=O)C(C)NC(=O)C(C)NC(=O)C(C)NC(=O)CCCC(=O)O (stereo not drawn)
36 | 119 to 120 °C | COCCNC(=O)c1cccc(-c2ccc3c(c2)N(c2ccc(Cl)cc2Cl)CC3)c1
37 | 49 to 49.5 °C | CSCCCC(=O)C(=C1NCCCS1)[N+](=O)[O-]
38 | 211 to 212 °C | O=c1[nH]nc(CCc2cc(F)c(C(F)(F)F)c(F)c2)cc1O
39 | 121 to 123 °C | Cc1c(C)c(C2CC(=O)C=C(O)C2)c(C)c2c1CC(C)(C)O2 (stereo not drawn)
40 | 260 to 262 °C | O=C(NCCc1ccccc1)c1c(Cl)ccc2nc(N3CCC(C(=O)O)CC3)ccc12
41 | 112 to 118 °C | OC1CCC(Oc2ccc3[nH]ncc3c2)CC1 (stereo not drawn)
42 | 240 to 242 °C | Nc1ncccc1-c1nc2cc(F)cnc2n1-c1ccc(CC(=O)Nc2ccccc2)cc1
43 | 142 to 145 °C | Cc1cc(NC(=O)c2ccccc2O)cc(C)c1O
44 | 280 to 283 °C | CCCc1c(Oc2ccc(C(=O)O)cc2C(=O)O)ccc(C(C)=O)c1O
45 | 120 to 122 °C | COC(=O)Cc1ccc2oc(=S)[nH]c2c1
46 | 122 to 124 °C | O=C(O)CCCCCCCCCCCCCCCCCCCCC(=O)ON1C(=O)CCC1=O
47 | 183 to 185 °C | CC(=CC(=O)c1ccc(C(=O)N2Cc3cccn3Cc3ccccc32)cc1)N(C)C
48 | 80 to 82 °C | COC(=O)C(CC(C)C)NC(=O)C(CC(C)C)NC(=O)OCc1ccccc1 (stereo not drawn)
49 | 122 to 123 °C | Nc1cc(C=O)nc(C2CCCO2)c1F (stereo not drawn)
50 | 141 to 142 °C | COC(=O)c1ccc(OCCCN(C(N)=O)c2ccc(Cl)cc2)cc1
51 | 74 to 78 °C | CC1(C)CC(O)CC(C)(C)N1OC1CCCCC1
52 | 186 to 188 °C | OCCn1cc(C(F)(F)F)nc1-c1ccc(O)cc1
53 | 69 to 71 °C | COc1ccc2c(CC3=C(CC(=O)O)CCCC3=O)cccc2c1C(F)(F)F

Row | melting point | Compound
54 | 142 to 143 °C | CC(C)S(=O)(=O)c1cc(C#N)c(N)c(OCCCS(C)(=O)=O)c1
55 | 161 to 163 °C | CCCC1C(=O)N(S(=O)(=O)c2ccc3ccccc3c2)C2CCN(C(=O)CN3CCCCC3)C12 (stereo not drawn)
56 | 200 °C | CCOC(=O)C1=C(C)NC(N)=C(C(=O)OC(C)C)C1c1ccccc1C#N (stereo not drawn)
57 | 230 to 233 °C | CCc1ccccc1-c1cccc2[nH]c(C(=O)O)cc12
58 | 193 to 194 °C | CC(C)Cc1nc2ccc(Br)cc2c(-c2ccccc2)c1CNC(=O)OC(C)(C)C
59 | 235 to 236 °C | CC(=O)Nc1nc(NC(C)=O)nc(C2CCC(c3ccccc3)CC2)n1 (stereo not drawn)
60 | 128 to 130 °C | O=C(COc1ccc([N+](=O)[O-])c(F)c1)NCc1ccccc1
61 | 86 °C | [N-]=[N+]=NC[C@H]1O[C@H]([C@H](O)CO)[C@H](O)[C@@H]1O
62 | 164 to 166 °C | CC(=O)SCC(Cc1ccc(F)cc1F)C(=O)Nc1cccc(C(=O)O)c1 (stereo not drawn)
63 | 189 to 191 °C | C=CCOC1CC2C3CCC4=CC(=O)CCC4(C)C3(F)C(O)CC2(C)C1(O)C(=O)CO (stereo not drawn)
64 | 100 to 101 °C | O=C(NCCO)c1csc(C(F)(F)F)n1
65 | 327 to 328 °C | CC(=O)C1=CCC2C3CCC4=CC(=O)C=CC4(C)C3(F)C(O)CC12C (stereo not drawn)
66 | 163 to 164 °C | CCCOc1nc2ccccc2[nH]1
67 | 125 to 127 °C | O=C(O)COc1cccc(CCc2cc(-c3ccccc3)n(-c3ccccc3)n2)c1
68 | 107 °C | CCOP(=O)(OCC)C(CCc1cc(C)nc2c(C#N)c(-c3ccccc3)nn12)P(=O)(OCC)OCC
69 | 214 °C | O=C(O)Cc1nn(Cc2nc3cc(Br)ccc3s2)c(=O)c2ccccc12
70 | 191 to 196 °C | CCNC(=S)NC1=Nc2ccccc2CS1
71 | 184 to 187 °C | NS(=O)(=O)c1ccc(NC(=O)C(=O)N2CCC(Cc3ccccc3)CC2)cc1
72 | 225 to 227 °C | CC(=O)OC1C(NC(=O)c2ccc(C(F)(F)F)cc2)c2sc(C(C)=O)cc2OC1(C)C (stereo not drawn)
73 | 121 °C | COC(=O)C(c1ccc(Cl)cc1)c1c(Cl)cc(-n2ncc(=O)[nH]c2=O)cc1Cl (stereo not drawn)
